Measured values from article PMC8751734 (Cell Chemical Biology, 2022).

How the values were obtained:
PL^pro = conditions: ref Shin et al., 2020 (GRL-0617); Klemm et al., 2020 (rac5c); cited from earlier work
[1] = Pharmacokinetics study of ACF in CD-1 mice; assay type: in vivo
SARS-CoV-2 [2] = assay: Activity of ACF components against SARS-CoV-2 in vitro; assay type: cell-based
SARS-CoV-2 [3] = assay type: cell-based
SARS-CoV-2 [4] = assay type: cell-based; remark: listed apart in the source
SARS-CoV-2 [5] = conditions: mouse, in vivo
SARS-CoV-2 [6] = assay type: cell-based; remark: listed apart in the source

## COc1cc(CNC(=O)C2CCN(C(C)c3cccc4ccccc34)CC2)ccn1 (racemic) [rac5c]
PL^pro
  reported activity: active at the micromolar range

## Cc1ccc(N)cc1C(=O)N[C@H](C)c1cccc2ccccc12 [GRL-0617]
PL^pro
  reported activity: active at the micromolar range

## Nc1ccc2cc3ccc(N)cc3nc2c1 [PF, 3,6-diaminoacridine]
[1]; IV 15 mg/kg and PO 100 mg/kg of commercial ACF
  levels / exposure in lungs: very high
[1]; components of commercial ACF
  oral bioavailability: much higher bioavailability
SARS-CoV-2 [2]
  activity against SARS-CoV-2 in vitro: active

## CCC(CC)COC(=O)[C@H](C)N[P@](=O)(OC[C@H]1O[C@@](C#N)(c2ccc3c(N)ncnn23)[C@H](O)[C@@H]1O)Oc1ccccc1 [remdesivir]
SARS-CoV-2 [3]
  elimination of SARS-CoV-2 (confocal microscopy): nearly complete elimination
SARS-CoV-2 [4]
  inhibition of SARS-CoV-2 replication (confocal microscopy): inferior compared with 500 nM ACF
SARS-CoV-2 [5]
  adverse effects in mice: No adverse effects were observed
  decrease of viral loads in the brain: 2–3 orders of magnitude
SARS-CoV-2 [6]
  virus yields in HAE cultures compared with PBS/untreated control: significantly inhibited virus yields
